Experiments:
Assay in all cases: biochemical
Design in all cases: KINOMEscan scanMAX active site-directed competition binding assay, percent of control, 468 kinases
Settings in all cases: competition binding, percent of control
[1] = biological target: EGFR(G719S) (Homo sapiens, UniProt P00533, G719S)
In short: (§1)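 Single-concentration screen (100 μM S-carvone) in a competition binding panel of 468 human kinases (KINOMEscan scanMAX); results given as percent of control, hit cutoff 35%.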

[2] = biological target: T1, ARK5 (Homo sapiens, UniProt O60285)
T1 construct: gene NUAK1
In short: as §1

[3] = biological target: ROCK2 (Homo sapiens, UniProt O75116)
In short: as §1

[4] = biological target: GRK7 (Homo sapiens, UniProt Q8WTQ7)
In short: as §1

[5] = biological target: T2, JAK1(JH1domain-catalytic) (Homo sapiens, UniProt P23458)
T2 construct: JH1domain-catalytic
In short: as §1

[6] = biological target: T3, AMPK-alpha2 (Homo sapiens, UniProt P54646)
T3 construct: gene PRKAA2
In short: as §1

[7] = biological target: T4, DRAK1 (Homo sapiens, UniProt Q9UEE5)
T4 construct: gene STK17A
In short: as §1

[8] = biological target: ERBB3 (Homo sapiens, UniProt P21860)
In short: as §1

[9] = biological target: T5, IKK-epsilon (Homo sapiens, UniProt Q14164)
T5 construct: gene IKBKE
In short: as §1

[10] = biological target: MAP3K1 (Homo sapiens, UniProt Q13233)
In short: as §1

[11] = biological target: KIT (Homo sapiens, UniProt P10721)
In short: as §1

[12] = biological target: T6, YANK3 (Homo sapiens, UniProt Q86UX6)
T6 construct: gene STK32C
In short: as §1

[13] = biological target: BRSK1 (Homo sapiens, UniProt Q8TDC3)
In short: as §1

[14] = biological target: PIP5K1C (Homo sapiens, UniProt O60331)
In short: as §1

[15] = biological target: T7, ABL1(Q252H)-nonphosphorylated (Homo sapiens, UniProt P00519, Q252H)
T7 construct: nonphosphorylated
In short: as §1

[16] = biological target: LIMK2 (Homo sapiens, UniProt P53671)
In short: as §1

[17] = biological target: PRKG2 (Homo sapiens, UniProt Q13237)
In short: as §1

[18] = biological target: MARK1 (Homo sapiens, UniProt Q9P0L2)
In short: as §1

[19] = biological target: CDKL1 (Homo sapiens, UniProt Q00532)
In short: as §1

[20] = biological target: T8, ASK1 (Homo sapiens, UniProt Q99683)
T8 construct: gene MAP3K5
In short: as §1

[21] = biological target: T9, DLK (Homo sapiens, UniProt Q12852)
T9 construct: gene MAP3K12
In short: as §1

Chain of ROCK2 (O75116 whole entry): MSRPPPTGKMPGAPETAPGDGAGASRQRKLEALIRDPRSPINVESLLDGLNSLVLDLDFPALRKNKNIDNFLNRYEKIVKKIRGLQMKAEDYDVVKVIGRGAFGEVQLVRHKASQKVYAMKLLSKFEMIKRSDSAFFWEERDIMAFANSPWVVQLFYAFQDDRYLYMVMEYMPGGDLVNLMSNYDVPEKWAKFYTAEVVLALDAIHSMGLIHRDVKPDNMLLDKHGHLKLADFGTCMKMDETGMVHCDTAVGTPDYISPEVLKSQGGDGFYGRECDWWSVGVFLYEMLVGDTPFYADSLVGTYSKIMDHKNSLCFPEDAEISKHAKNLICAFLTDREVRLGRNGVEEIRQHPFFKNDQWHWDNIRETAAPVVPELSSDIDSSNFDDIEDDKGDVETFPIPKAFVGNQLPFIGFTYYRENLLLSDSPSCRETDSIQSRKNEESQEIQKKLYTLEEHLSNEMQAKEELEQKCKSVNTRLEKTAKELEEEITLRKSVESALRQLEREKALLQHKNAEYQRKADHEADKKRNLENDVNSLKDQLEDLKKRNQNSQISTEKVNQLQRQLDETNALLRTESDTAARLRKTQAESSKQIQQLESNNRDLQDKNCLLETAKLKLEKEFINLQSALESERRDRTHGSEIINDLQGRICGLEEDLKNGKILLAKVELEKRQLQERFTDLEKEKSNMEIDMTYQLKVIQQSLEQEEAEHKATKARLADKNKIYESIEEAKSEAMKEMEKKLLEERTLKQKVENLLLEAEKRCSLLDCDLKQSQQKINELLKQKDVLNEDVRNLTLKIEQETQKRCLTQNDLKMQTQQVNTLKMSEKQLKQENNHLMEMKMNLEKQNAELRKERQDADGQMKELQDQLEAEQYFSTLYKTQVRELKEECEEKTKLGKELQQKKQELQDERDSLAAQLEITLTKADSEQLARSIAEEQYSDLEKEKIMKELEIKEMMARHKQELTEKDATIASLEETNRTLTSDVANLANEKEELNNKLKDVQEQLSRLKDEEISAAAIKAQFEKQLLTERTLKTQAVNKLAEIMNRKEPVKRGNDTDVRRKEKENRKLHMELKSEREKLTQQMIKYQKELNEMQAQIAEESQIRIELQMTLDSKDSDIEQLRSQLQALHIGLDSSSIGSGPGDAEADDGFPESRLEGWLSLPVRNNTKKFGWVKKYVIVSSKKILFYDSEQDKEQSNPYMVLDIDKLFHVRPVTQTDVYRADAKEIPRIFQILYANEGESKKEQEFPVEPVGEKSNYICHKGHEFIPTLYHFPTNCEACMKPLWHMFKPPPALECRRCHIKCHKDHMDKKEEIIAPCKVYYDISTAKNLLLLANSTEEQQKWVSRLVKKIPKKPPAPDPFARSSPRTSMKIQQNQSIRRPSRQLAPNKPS
T9 sequence (Q12852 whole entry): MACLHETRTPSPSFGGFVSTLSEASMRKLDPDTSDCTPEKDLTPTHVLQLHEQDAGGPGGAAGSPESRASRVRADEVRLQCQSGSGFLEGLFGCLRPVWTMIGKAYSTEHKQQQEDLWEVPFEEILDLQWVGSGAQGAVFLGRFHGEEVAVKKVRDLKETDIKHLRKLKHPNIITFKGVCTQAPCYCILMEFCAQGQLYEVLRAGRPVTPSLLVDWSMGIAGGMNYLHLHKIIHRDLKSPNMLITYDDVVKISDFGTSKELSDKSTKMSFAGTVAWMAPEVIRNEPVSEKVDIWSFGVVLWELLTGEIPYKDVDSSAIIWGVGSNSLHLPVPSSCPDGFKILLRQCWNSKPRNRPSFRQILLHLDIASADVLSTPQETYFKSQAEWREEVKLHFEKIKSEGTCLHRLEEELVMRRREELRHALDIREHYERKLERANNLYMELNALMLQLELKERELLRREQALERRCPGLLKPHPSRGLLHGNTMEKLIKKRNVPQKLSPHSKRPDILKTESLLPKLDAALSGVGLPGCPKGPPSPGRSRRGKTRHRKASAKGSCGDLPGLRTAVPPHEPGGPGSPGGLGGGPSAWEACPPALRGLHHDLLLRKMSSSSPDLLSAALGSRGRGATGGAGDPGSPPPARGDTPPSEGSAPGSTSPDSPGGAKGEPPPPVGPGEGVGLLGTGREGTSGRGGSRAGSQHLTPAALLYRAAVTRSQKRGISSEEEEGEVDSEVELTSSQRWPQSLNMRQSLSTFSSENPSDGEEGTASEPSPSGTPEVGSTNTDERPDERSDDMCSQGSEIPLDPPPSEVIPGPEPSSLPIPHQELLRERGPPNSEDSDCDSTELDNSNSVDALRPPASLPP
T4 sequence (Q9UEE5 whole entry): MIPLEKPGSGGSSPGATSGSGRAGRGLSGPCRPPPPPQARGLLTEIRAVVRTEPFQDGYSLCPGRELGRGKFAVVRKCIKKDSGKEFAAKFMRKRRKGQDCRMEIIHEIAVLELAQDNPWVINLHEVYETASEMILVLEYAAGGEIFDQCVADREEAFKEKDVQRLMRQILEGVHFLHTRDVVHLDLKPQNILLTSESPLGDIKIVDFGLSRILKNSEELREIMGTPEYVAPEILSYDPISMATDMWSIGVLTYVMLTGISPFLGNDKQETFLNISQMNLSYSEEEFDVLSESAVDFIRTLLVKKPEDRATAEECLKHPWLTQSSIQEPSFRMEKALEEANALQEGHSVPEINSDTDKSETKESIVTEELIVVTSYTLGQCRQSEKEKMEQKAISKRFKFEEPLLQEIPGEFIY
T3 sequence (P54646 whole entry): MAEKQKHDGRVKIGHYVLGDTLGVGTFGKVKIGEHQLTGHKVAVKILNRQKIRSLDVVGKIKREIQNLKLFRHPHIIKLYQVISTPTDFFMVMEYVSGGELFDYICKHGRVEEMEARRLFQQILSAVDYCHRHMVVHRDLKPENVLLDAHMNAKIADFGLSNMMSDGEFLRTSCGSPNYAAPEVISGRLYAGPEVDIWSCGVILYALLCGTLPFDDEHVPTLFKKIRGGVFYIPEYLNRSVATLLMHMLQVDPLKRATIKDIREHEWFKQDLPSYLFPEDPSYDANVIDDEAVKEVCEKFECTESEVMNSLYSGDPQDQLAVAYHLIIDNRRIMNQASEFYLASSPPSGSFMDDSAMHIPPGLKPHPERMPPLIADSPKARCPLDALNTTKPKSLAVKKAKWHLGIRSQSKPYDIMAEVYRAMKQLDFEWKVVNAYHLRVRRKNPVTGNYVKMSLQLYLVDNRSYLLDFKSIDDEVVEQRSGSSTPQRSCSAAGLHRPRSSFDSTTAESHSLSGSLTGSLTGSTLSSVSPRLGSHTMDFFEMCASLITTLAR
Chain of LIMK2 (P53671 whole entry): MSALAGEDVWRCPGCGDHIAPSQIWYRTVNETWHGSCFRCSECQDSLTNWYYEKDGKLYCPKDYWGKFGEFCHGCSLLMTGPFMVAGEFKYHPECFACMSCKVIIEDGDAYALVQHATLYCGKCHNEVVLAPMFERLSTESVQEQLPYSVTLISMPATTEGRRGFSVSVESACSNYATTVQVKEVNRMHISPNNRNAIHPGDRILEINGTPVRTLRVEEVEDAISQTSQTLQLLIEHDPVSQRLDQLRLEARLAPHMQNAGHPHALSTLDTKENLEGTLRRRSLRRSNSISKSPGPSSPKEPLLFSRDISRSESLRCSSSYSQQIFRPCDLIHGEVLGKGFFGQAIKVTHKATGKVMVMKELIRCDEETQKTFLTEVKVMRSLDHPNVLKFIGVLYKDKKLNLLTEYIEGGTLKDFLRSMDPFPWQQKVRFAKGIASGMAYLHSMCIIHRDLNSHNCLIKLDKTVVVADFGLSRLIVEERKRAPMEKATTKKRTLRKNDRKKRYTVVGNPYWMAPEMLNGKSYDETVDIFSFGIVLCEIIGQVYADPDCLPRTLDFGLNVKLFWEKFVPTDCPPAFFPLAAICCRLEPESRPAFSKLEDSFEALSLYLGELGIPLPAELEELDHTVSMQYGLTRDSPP
T2 sequence (P23458 whole entry): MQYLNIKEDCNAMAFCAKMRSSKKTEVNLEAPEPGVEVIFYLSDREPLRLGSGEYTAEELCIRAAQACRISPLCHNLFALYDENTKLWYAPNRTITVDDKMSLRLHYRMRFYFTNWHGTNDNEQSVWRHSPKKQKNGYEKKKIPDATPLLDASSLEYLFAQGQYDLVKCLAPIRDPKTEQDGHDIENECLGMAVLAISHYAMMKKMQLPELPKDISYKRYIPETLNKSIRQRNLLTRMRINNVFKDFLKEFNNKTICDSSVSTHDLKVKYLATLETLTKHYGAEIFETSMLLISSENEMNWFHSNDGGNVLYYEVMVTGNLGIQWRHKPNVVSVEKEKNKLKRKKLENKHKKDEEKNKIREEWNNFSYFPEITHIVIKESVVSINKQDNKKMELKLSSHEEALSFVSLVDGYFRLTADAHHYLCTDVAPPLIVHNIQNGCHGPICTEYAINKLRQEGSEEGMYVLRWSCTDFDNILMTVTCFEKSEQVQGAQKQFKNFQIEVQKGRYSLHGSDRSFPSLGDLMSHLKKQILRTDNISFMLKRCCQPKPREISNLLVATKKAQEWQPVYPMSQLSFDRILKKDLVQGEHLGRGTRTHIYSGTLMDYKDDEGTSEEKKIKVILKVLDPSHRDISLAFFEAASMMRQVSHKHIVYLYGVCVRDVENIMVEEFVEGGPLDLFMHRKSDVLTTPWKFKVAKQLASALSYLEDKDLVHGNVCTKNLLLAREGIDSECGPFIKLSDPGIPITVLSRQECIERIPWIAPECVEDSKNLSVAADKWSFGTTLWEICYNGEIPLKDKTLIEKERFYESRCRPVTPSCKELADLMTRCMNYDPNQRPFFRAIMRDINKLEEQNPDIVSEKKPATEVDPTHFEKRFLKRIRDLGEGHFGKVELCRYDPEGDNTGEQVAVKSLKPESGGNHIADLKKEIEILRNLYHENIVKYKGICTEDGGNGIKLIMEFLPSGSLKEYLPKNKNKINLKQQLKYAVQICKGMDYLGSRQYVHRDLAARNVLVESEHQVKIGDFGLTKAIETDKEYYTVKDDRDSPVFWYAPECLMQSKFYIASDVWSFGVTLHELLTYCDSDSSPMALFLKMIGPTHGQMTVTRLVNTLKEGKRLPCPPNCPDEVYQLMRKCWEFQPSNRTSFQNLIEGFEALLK

C=C(C)[C@H]1CC=C(C)C(=O)C1 [S-carvone]
remaining binding at 100 µM [1]: 72%
remaining binding at 100 µM [2]: 100%
remaining binding at 100 µM [3]: 66%
remaining binding at 100 µM [4]: 75%
remaining binding at 100 µM [5]: 100%
remaining binding at 100 µM [6]: 88%
remaining binding at 100 µM [7]: 100%
remaining binding at 100 µM [8]: 78%
remaining binding at 100 µM [9]: 52%
remaining binding at 100 µM [10]: 60%
remaining binding at 100 µM [11]: 82%
remaining binding at 100 µM [12]: 91%
remaining binding at 100 µM [13]: 100%
remaining binding at 100 µM [14]: 100%
remaining binding at 100 µM [15]: 66%
remaining binding at 100 µM [16]: 90%
remaining binding at 100 µM [17]: 76%
remaining binding at 100 µM [18]: 85%
remaining binding at 100 µM [19]: 70%
remaining binding at 100 µM [20]: 81%
remaining binding at 100 µM [21]: 88%
